Source: patent publication US20040209799A1, “JAK/STAT pathway inhibitors and the uses thereof” (priority 2000, published 2004)

How the values were obtained:
JAK3 = target: T1, JAK3 (Homo sapiens, UniProt P52333); experiment: tyrosine kinase ELISA, DBH inhibition of JAK3 (Example 6); type: biochemical; conditions: GAS 1 biotinylated peptide substrate, 0-1250 μM ATP, 30 min at 37° C., read-out: inhibition constant (Ki)
T1 sequence (P52333 1-1124): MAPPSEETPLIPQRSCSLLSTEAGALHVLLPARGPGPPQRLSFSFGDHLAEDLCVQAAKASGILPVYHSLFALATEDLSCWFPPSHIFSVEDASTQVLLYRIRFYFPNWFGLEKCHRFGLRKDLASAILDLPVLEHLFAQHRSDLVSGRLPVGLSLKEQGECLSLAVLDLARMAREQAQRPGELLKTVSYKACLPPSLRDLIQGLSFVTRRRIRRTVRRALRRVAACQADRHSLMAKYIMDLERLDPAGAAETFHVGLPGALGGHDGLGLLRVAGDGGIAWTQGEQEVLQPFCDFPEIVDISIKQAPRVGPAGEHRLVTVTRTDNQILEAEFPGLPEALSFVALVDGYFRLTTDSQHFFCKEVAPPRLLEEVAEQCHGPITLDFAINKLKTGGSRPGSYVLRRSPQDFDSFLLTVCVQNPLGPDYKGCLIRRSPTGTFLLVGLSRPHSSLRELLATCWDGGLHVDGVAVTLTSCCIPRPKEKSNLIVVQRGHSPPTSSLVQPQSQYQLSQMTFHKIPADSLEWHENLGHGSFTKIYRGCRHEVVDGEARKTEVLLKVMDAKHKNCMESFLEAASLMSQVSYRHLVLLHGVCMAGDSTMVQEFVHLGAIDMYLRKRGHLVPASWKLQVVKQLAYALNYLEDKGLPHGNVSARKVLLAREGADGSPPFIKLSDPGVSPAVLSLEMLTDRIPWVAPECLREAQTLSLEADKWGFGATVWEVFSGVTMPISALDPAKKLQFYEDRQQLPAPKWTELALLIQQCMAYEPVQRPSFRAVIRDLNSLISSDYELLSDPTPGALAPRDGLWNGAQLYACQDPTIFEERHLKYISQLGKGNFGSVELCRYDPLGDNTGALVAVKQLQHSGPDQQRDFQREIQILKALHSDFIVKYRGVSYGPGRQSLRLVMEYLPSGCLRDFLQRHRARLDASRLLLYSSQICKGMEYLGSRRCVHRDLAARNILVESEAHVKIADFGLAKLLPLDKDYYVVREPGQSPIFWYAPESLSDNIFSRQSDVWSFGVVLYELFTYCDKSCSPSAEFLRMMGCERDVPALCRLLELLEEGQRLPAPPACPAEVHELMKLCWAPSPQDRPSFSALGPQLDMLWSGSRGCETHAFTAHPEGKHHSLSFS
Procedure: Nunc-Immunoplate Maxisorp flat-bottomed capture plates (Nalge Nunc International, Rochester, N.Y.) were coated with 80 μl/well anti-phosphotyrosine PY54 MAb antibody (Transduction Labs, Lexington, Ky.), diluted to 2 μg/ml in coating buffer (10 mM phosphate, pH 7.2+0.02% NaN3), and allowed to adsorb overnight at 4° C. The plates were washed (all washes are 4× with TBST: 25 mM Tris/HCl, pH 8.0, 150 mM NaCl+0.05% Tween-20), and 200 μl/well of blocking buffer (TBST+1% BSA) was added. The plates were sealed and incubated at 37° C. for 60 min or overnight at 4° C., and washed again.
Kinase reactions were run in 50 μl volumes with biotinylated peptide substrate in a round-bottom plate (Corning, Corning, N.Y.). Kinase reactions mixtures contained; 20 μl 50 μM GAS 1 biotinylated peptide (LCBiotin-EGPWLEEEEEAYGWMDF-amide), 0-1250 μM ATP in kinase buffer, 10 μl 50 mM MgCl2 in 2× kinase buffer (50 mM imidazole/HCl, 2 mM EDTA, 0.2 mM EDTA, 0.030% Brij-35, pH 6.8), 10 μl 0-50 μM DBH in water containing 0.2% Pluronic-104 and 3% dimethyl sulfoxide (DMSO), and 10 μl JAK3 enzyme diluted in kinase buffer. A phosphopeptide standard curve (0-10 nM) using kinase buffer as the diluent was also tested.
Kinase reactions were run for 30 min at 37° C., then stopped by adding 15 μl/well of 0.125 M EDTA, pH 6.8. […] Samples were read at A450-A620.

[1] = tested on: chondrocytes in culture and explants of articular cartilage; conditions: cited from earlier work
[2] = tested on: interleukin-6 (IL-6) mRNA; experiment: northern blot, IL-1β-induced mRNA in human articular chondrocytes: IL-6; type: cell-based; conditions: 5 μM, 2 ng/ml rhIL-1β, 24 hours, free base or trifluoroacetic acid salt form
Procedure: Frozen human articular chondrocyte cell strain HC30-0198 (described in Example 1) was thawed, and cultured in monolayer in T150 tissue culture flasks (Corning Costar, Cambridge, Mass.) as described above to 1-5 days post-confluence. Test cultures were rinsed in PBS, and preincubated for 2 hours with 10 ml of serum-free DMEM containing 5 μM DBH (synthetic), in its free base or trifluoroacetic acid salt form. An additional 10 ml of serum-free DMEM containing 5 μM DBH, 4 ng/ml recombinant human interleukin-1β (rhIL-1β; final concentration of 2 ng/ml) (R&D Systems, Minneapolis, Minn.), and 2% antibiotic solution (final concentration of 1%), were then added for 24 hours.
Two control cultures were run in parallel: one without DBH (rhIL-1β alone), and another without DBH or rhIL-1β.
Total RNA was fixed to the membrane using a Stratalinker® 1800 UV Crosslinker (Stratagene, La Jolla, Calif.). […]
The blot was successively washed two times in 2×SSC/0.05% SDS (15 min/wash at room temperature), and two times in 0.1×SSC/0.1% SDS (30 minutes/wash at 65° C.). The blot was allowed to air dry, and the radioactive signal was visualized and quantified using a Fujifilm, BAS-1500 phosphorimager (Fuji, Stamford, Conn.). […]

## NC1=NC(=O)C(=C2CCNC(=O)c3[nH]ccc32)N1 [DBH, 4-(2-amino-4-oxo-2-imidazolin-5-ylidene)-4,5,6,7-tetrahydropyrrolo(2,3-c) azepine-8-one]
JAK3
  Ki: 286 ± 16 nM
[1]
  inhibition of IL-1 induced degradation of glycosaminoglycan and extracellular matrix: inhibit
[2]
  inhibition of IL-1β-induced upregulation of interleukin-6 (IL-6) mRNA: inhibit to various degrees
